Here are results for 5 compounds from publication PMC8490327 (Environment international, 2021).

The nature of series [1]: Relative hepatic PFAS levels. It is filed as in vivo, mouse. Conditions: liver; for Relative Hepatic PFAS Levels: Fold Change PFAS Female vs. PFAS Male / Relative Hepatic PFAS Levels: Fold Change PFAS vs. Vehicle: 12 weeks of the 5-PFAS mixture, 2 mg/L each in drinking water; for Hepatic level, fold increase in PFAS-exposed females compared to vehicle / Hepatic level, fold increase in PFAS-exposed males compared to vehicle: 12 weeks.

Series [2] can be described thus: Relative plasma PFAS levels. Format: in vivo, mouse. Conditions: for Relative Plasma PFAS Levels: Fold Change PFAS Female vs. PFAS Male / Relative Plasma PFAS Levels: Fold Change PFAS vs. Vehicle: 12 weeks of the 5-PFAS mixture, 2 mg/L each in drinking water; for Plasma level, fold increase in PFAS-exposed females compared to vehicle / Plasma level, fold increase in PFAS-exposed males compared to vehicle: 12 weeks.

The nature of series [3]: Absolute quantitation of circulating PFAS. Format: in vivo, mouse. The note with it: for Absolute Plasma PFAS Levels: Fold Change PFAS Female vs. PFAS Male / Absolute Plasma PFAS Levels: PFAS Female Average Concentration / Absolute Plasma PFAS Levels: PFAS male Average Concentration / Absolute Plasma PFAS Levels: Overall Average Concentration: 12 weeks; for Absolute Plasma PFAS Levels: PFAS Female Average Concentration: exposed females; for Absolute Plasma PFAS Levels: PFAS Female Average Concentration / Absolute Plasma PFAS Levels: PFAS male Average Concentration: 2 mg/L each in drinking water, n=3; for Absolute Plasma PFAS Levels: PFAS male Average Concentration: exposed males; for Absolute Plasma PFAS Levels: Overall Average Concentration: exposed mice of both sexes; for concentration at 12 weeks: C57BL/6J, mouse, plasma, oral.

For series [4] the following is noted: ref Olsen et al. 2007; cited from earlier work.
For series [5] the following is noted: cited from earlier work; for Median serum concentration: general U.S. population, NHANES 2003-2004, ref Nelson et al. 2010.
The subject of another series is human PPARα. The note with it: ref Behr et al. 2020b, cited from earlier work; for In vitro activation of human PPARα: reporter gene assays; for PPARα activation compared to the positive control GW7647: even at concentrations 250 times greater than GW7647. For orientation: Reporter assays use an easily measured gene product as a stand-in for the process of interest.

The test system of a further series is humans. The note with it: cited from earlier work.

Take `O=S(=O)(O)C(F)(F)C(F)(F)C(F)(F)C(F)(F)C(F)(F)C(F)(F)C(F)(F)C(F)(F)F` [PFOS, Perfluorooctane sulfonate]: in series [1], the “Relative Hepatic PFAS Levels: Fold Change PFAS Female vs. PFAS Male” value is on record as 0.92 fold; the “Relative Hepatic PFAS Levels: Fold Change PFAS vs. Vehicle” value was found to be 188.03 fold; the “Hepatic level, fold increase in PFAS-exposed females compared to vehicle” value is recorded as 386.3 fold; the “Hepatic level, fold increase in PFAS-exposed males compared to vehicle” value came to 127.2 fold. Further, in series [2], the “Relative Plasma PFAS Levels: Fold Change PFAS Female vs. PFAS Male” value is reported as 0.77 fold; the “Relative Plasma PFAS Levels: Fold Change PFAS vs. Vehicle” value was 627.07 fold; the “Plasma level, fold increase in PFAS-exposed females compared to vehicle” value was 545.2 fold; the “Plasma level, fold increase in PFAS-exposed males compared to vehicle” value was found to be 708.9 fold. Moreover, in series [3], the “Absolute Plasma PFAS Levels: Fold Change PFAS Female vs. PFAS Male” value was 0.6 fold, the “Absolute Plasma PFAS Levels: PFAS Female Average Concentration” value came out at 13.8 ± 2.3 µg/mL, the “Absolute Plasma PFAS Levels: PFAS male Average Concentration” value came out at 22.5 ± 4.1 µg/mL and the “Absolute Plasma PFAS Levels: Overall Average Concentration” value worked out at 18.1 ± 5.6 µg/mL. In series [4], the “Biological half-life in human serum” value is reported as around 5 years. The Median serum concentration in series [5] is 21 ng/mL. For the same compound, the “In vitro activation of human PPARα” value in the series with human PPARα is recorded as “capable of PPARα activation”.
As to `O=S(=O)(O)C(F)(F)C(F)(F)C(F)(F)C(F)(F)C(F)(F)C(F)(F)F` [PFHxS], in series [1], the “Relative Hepatic PFAS Levels: Fold Change PFAS Female vs. PFAS Male” value was 1.30 fold; the “Relative Hepatic PFAS Levels: Fold Change PFAS vs. Vehicle” value is reported as 705.46 fold; the “Hepatic level, fold increase in PFAS-exposed females compared to vehicle” value worked out at 2035.7 fold; the “Hepatic level, fold increase in PFAS-exposed males compared to vehicle” value is reported as 387.1 fold. Further, in series [2], the “Relative Plasma PFAS Levels: Fold Change PFAS Female vs. PFAS Male” value is on record as 0.96 fold; the “Plasma level, fold increase in PFAS-exposed females compared to vehicle” value was determined as 6491 fold; the “Plasma level, fold increase in PFAS-exposed males compared to vehicle” value came to 5414.2 fold. The “Absolute Plasma PFAS Levels: Fold Change PFAS Female vs. PFAS Male” value in series [3] was found to be 0.9 fold. This compound came in with a concentration at 12 weeks in series [3] (both) of 23800 ng/mL. Also, the “Biological half-life in human serum” value in series [4] was around 8.5 years. Besides, the “In vitro activation of human PPARα” value with human PPARα is “capable of PPARα activation”.
As for `O=C(O)C(F)(F)C(F)(F)C(F)(F)C(F)(F)C(F)(F)C(F)(F)C(F)(F)C(F)(F)F` [PFNA, perfluorononanoic acid], in series [3], the “Absolute Plasma PFAS Levels: Fold Change PFAS Female vs. PFAS Male” value is 0.8 fold, the “Absolute Plasma PFAS Levels: PFAS Female Average Concentration” value was found to be 33.7 ± 7.6 µg/mL, the “Absolute Plasma PFAS Levels: PFAS male Average Concentration” value was 40.9 ± 10.6 µg/mL and the “Absolute Plasma PFAS Levels: Overall Average Concentration” value is 37.3 ± 9.1 µg/mL.
With `O=C(O)C(F)(F)C(F)(F)C(F)(F)C(F)(F)C(F)(F)C(F)(F)C(F)(F)F` [PFOA, perfluorooctanoic acid], in series [1], the “Relative Hepatic PFAS Levels: Fold Change PFAS Female vs. PFAS Male” value was 2.43 fold; the “Relative Hepatic PFAS Levels: Fold Change PFAS vs. Vehicle” value is reported as 1513.94 fold; the “Hepatic level, fold increase in PFAS-exposed females compared to vehicle” value is 4693.4 fold; the “Hepatic level, fold increase in PFAS-exposed males compared to vehicle” value is 571.9 fold. In series [2], the “Relative Plasma PFAS Levels: Fold Change PFAS Female vs. PFAS Male” value turned out to be 1.96 fold; the “Relative Plasma PFAS Levels: Fold Change PFAS vs. Vehicle” value worked out at 10270.75 fold; the “Plasma level, fold increase in PFAS-exposed females compared to vehicle” value is 10883.6 fold; the “Plasma level, fold increase in PFAS-exposed males compared to vehicle” value was found to be 6936.8 fold. Further, in series [3], the “Absolute Plasma PFAS Levels: Fold Change PFAS Female vs. PFAS Male” value amounted to 3.2 fold, the “Absolute Plasma PFAS Levels: PFAS Female Average Concentration” value amounted to 23.4 ± 9.0 µg/mL and the “Absolute Plasma PFAS Levels: PFAS male Average Concentration” value turned out to be 7.3 ± 1.8 µg/mL. The same compound registered a concentration at 12 weeks in series [3] (both) of 15400 ng/mL. In series [4], the “Biological half-life in human serum” value is given as “around 4 years”. Further, the Median serum concentration in series [5] is 3.9 ng/mL. Besides, in series [5] (populations occupationally exposed to PFOA, ref Sakr et al. 2007), the Average serum concentration is 1.13 µg/mL. Also, the “Predicted increase in total cholesterol from lowest to highest decile of PFOA” value in the series on humans (exposed communities, ref Steenland et al. 2009) was 11 to 12 mg/dL. The “Increase in total cholesterol associated with 1 ppm increase in serum PFOA” value with humans (occupationally exposed populations, ref Sakr et al. 2007) was 1.06 mg/dL. In the series with human PPARα, the “PPARα activation compared to the positive control GW7647” value is 60-90% and the “In vitro activation of human PPARα” value is “capable of PPARα activation”.
`N.O=C(O)C(F)(OC(F)(F)C(F)(F)C(F)(F)F)C(F)(F)F` (stereo not shown) [GenX]: in series [3], the “Absolute Plasma PFAS Levels: Fold Change PFAS Female vs. PFAS Male” value is listed as 1.8 fold and the concentration at 12 weeks was around 100 ng/g. In series [3] (both), this compound gave a concentration at 12 weeks of 140 ng/mL. In series [5] (not detected above limit of detection, ref Kotlarz et al. 2020), the “Serum level in a population exposed to PFAS-contaminated water” value is given as below 2 ng/mL. Moreover, in the series on human PPARα, the “PPARα activation compared to the positive control GW7647” value is 60-90% and the “In vitro activation of human PPARα” value is “capable of PPARα activation”.
